Assay results taken from PubChem BioAssay AID1349 (Sanford-Burnham Center for Chemical Genomics, 2008).
Active and inactive are the calls of the source.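 How the source made its calls: active means survival above the stress-only control level plus 20 points, here above 50%; inactive means the rest.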

These molecules were tested on CSM14.1 tunicamycin-induced death, Annexin V/PI flow, 72 h (assay: tunicamycin ER stress death protection – cell-based, undifferentiated CSM14.1, flow cytometry, orthogonal assay for ER stress death inhibitor project, SAR follow-up (AID 1349)). Details: at 25 µM; active compounds read high.

Row | SMILES | survival
1 | CSc1ccc(C2Nc3ccccc3NC3=C2C(=O)CC(c2ccccc2)C3)cc1 (stereo unspecified) | 62%
2 | COc1ccc(C2CC(=O)C3=C(C2)Nc2ccccc2NC3c2cccc(C(F)(F)F)c2)cc1OC (stereo unspecified) | 82%
3 | COc1ccc(C2CC(=O)C3=C(C2)Nc2ccccc2NC3c2ccccc2C(F)(F)F)cc1OC (stereo unspecified) | 65%
4 | COc1ccc(C2CC(=O)C3=C(C2)Nc2ccccc2NC3c2cccc(Br)c2)cc1OC (stereo unspecified) | 67%
5 | COc1ccc(C2CC(=O)C3=C(C2)Nc2ccccc2NC3c2cccc(Oc3ccccc3)c2)cc1OC (stereo unspecified) | 54%
6 | CCOc1cccc(C2Nc3ccccc3NC3=C2C(=O)CC(c2ccc(OC)cc2)C3)c1 (stereo unspecified) | 49% (inactive)
7 | COc1ccc(C2CC(=O)C3=C(C2)Nc2ccccc2NC3c2cc(C)ccc2C)cc1 (stereo unspecified) | 70%
8 | CC1(C)CC(=O)C2=C(C1)Nc1ccccc1NC2c1ccc(-c2ccccc2)cc1 (stereo unspecified) | 92%
9 | O=C1CC(c2ccccc2)CC2=C1C(c1c(F)cccc1Cl)Nc1ccccc1N2 (stereo unspecified) | 58%
10 | CCCOc1ccc(C2Nc3ccccc3NC3=C2C(=O)CC(c2ccc(OC)c(OC)c2)C3)cc1 (stereo unspecified) | 74%
11 | CCOc1cc(C2Nc3ccccc3NC3=C2C(=O)CC(c2ccc(OC)cc2)C3)cc(Cl)c1O (stereo unspecified) | 52%
